Measurements taken from ChEMBL document CHEMBL5543162, “Discovery of a Novel Orally Bioavailable FLT3-PROTAC Degrader for Efficient Treatment of Acute Myeloid Leukemia and Overcoming Resistance of FLT3 Inhibitors” (J Med Chem, 2024).
Active and inactive are the calls of the source. The rule behind the calls is not given here.

Legend:
[1] = test system: MV4-11; test: Antitumor activity against human MV4-11 cells xenografted in nu/nu mouse assessed as decrease in Ki67 level at 1.25 to 10 mg/kg, po administered daily for 2 weeks by IHC analysis; type: functional, organism-based; details: dose 1.25-10 mg/kg
[2] = Toxicity in nu/nu mouse xenografted with human MV4-11 cells assessed as damage in lung at 1.25 to 10 mg/kg, po administered daily for 2 weeks by H and E staining based analysis; type: organism-based; details: in vivo, 336 h, dose 1.25-10 mg/kg
[3] = Toxicity in nu/nu mouse xenografted with human MV4-11 cells assessed as damage in kidney at 1.25 to 10 mg/kg, po administered daily for 2 weeks by H and E staining based analysis; type: organism-based; details: in vivo, 336 h, dose 1.25-10 mg/kg
[4] = test system: MOLM-13; test: Antiproliferative activity against Sunitinib-resistant human MOLM-13 cells incubated for 48 hrs by CCK8 assay; type: functional, cell-based; details: MOLM-13, 48 h
[5] = test system: Protein cereblon/Receptor-type tyrosine-protein kinase FLT3 (Homo sapiens), P36888+Q96SW2 [UNDEFINED MUTATION]; test: PROTAC activity at CRBN/FLT3-ITD mutant in human MOLM-13 cells assessed as decrease in STAT5 level incubated for 12 hrs by Western blot analysis; type: cell-based; details: dose <= 20.0 nM
[6] = test system: Protein cereblon/Receptor-type tyrosine-protein kinase FLT3 (Homo sapiens), P36888+Q96SW2 [UNDEFINED MUTATION]; test: PROTAC activity at CRBN/FLT3-ITD in human MV4-11 cells assessed as protein degradation by TMT-based global proteomic profiling analysis; type: cell-based
[7] = test system: MV4-11; test: Induction of cell cycle arrest at G1 phase in human MV4-11 cells at 5 nM incubated for 24 hrs by PI/RNase staining based flow cytometry relative to control; type: functional
[8] = Half life in Sprague-Dawley rat at 1 mg/kg, iv measured for 24 hrs by LC-MS/MS analysis; type: ADME, organism-based; details: in vivo
[9] = test system: MV4-11; test: Antiproliferative activity against human MV4-11 cells expressing FLT3-ITD mutant incubated for 48 hrs by CCK8 assay; type: functional, cell-based; details: MV4-11, 48 h
[10] = test system: Protein cereblon/Receptor-type tyrosine-protein kinase FLT3 (Homo sapiens), P36888+Q96SW2 [UNDEFINED MUTATION]; test: PROTAC activity at CRBN/FLT3-ITD mutant in human MV4-11 cells assessed as protein degradation at 100 nM incubated for 24 hrs by Western blot analysis; type: cell-based
[11] = Volume of distribution at steady state in Sprague-Dawley rat at 1 mg/kg, iv measured for 24 hrs by LC-MS/MS analysis; type: ADME, organism-based; details: in vivo, read-out: Vdss
[12] = test system: MV4-11; test: Antitumor activity against human MV4-11 cells xenografted in nu/nu mouse at 5 mg/kg, po administered daily for 2 weeks relative to control; type: functional; details: MV4-11, 336 h, read-out: TGI
[13] = test system: MV4-11; test: Induction of apoptosis in human MV4-11 cells incubated for 24 hrs by Annexin V-FITC/PI staining based flow cytometry; type: functional, cell-based; details: dose 25-100 nM
[14] = molecular target: Voltage-gated inwardly rectifying potassium channel KCNH2 (Homo sapiens, UniProt Q12809); test: Inhibition of hERG; type: toxicity
[15] = test system: MV4-11; test: Antitumor activity against human MV4-11 cells expressing luciferase xenografted in NSG mouse assessed as increase in animal survival at 10 mg/kg, po administered daily for 3 weeks and measured for 77 days; type: functional, organism-based; details: time 77.0 day
[16] = test system: Protein cereblon/Receptor-type tyrosine-protein kinase FLT3 (Homo sapiens), P36888+Q96SW2 [UNDEFINED MUTATION]; test: PROTAC activity at CRBN/FLT3-ITD mutant in human MOLM-13 cells assessed as decrease in S6K level at 20 nM by Western blot analysis; type: cell-based; details: time <= 12.0 hrs, TDE = time-dependent effect
[17] = test system: MV4-11; test: Induction of cell cycle arrest at G1 phase in human MV4-11 cells at 1 nM incubated for 24 hrs by PI/RNase staining based flow cytometry relative to control; type: functional
[18] = test system: Mus musculus; test: Anti-leukemic activity in NSG mouse xenografted with human MV4-11 cells expressing luciferase assessed as decrease in CD45+/CD33+ cells proportion in spleen at 1.25 to 10 mg/kg, po administered daily for 3 weeks; type: functional, organism-based; details: dose 1.25-10 mg/kg
[19] = test system: Protein cereblon/Receptor-type tyrosine-protein kinase FLT3 (Homo sapiens), P36888+Q96SW2 [UNDEFINED MUTATION]; test: PROTAC activity at CRBN/FLT3-ITD mutant in human MOLM-13 cells assessed as protein degradation at 100 nM incubated for 8 hrs in presence of bortezomib by Western blot analysis; type: cell-based
[20] = Toxicity in nu/nu mouse xenografted with human MV4-11 cells assessed as damage in heart at 1.25 to 10 mg/kg, po administered daily for 2 weeks by H and E staining based analysis; type: organism-based; details: in vivo, 336 h, dose 1.25-10 mg/kg
[21] = Cmax in Sprague-Dawley rat at 10 mg/kg, po measured for 24 hrs by LC-MS/MS analysis; type: ADME, organism-based; details: in vivo
[22] = Stability in dog liver microsomes assessed as hepatic clearance; type: ADME, Canis lupus familiaris, Microsome
[23] = test system: MOLM-13; test: Induction of apoptosis in human MOLM-13 cells incubated for 24 hrs by Annexin V-FITC/PI staining based flow cytometry; type: functional, cell-based; details: dose 25-100 nM
[24] = test system: MOLM-13; test: Induction of cell cycle arrest at G1 phase in human MOLM-13 cells incubated for 24 hrs by PI/RNase staining based flow cytometry; type: functional; details: dose 1-50 nM
[25] = test system: Protein cereblon/Receptor-type tyrosine-protein kinase FLT3 (Homo sapiens), P36888+Q96SW2 [UNDEFINED MUTATION]; test: PROTAC activity at CRBN/FLT3-ITD mutant in human MV4-11 cells assessed as decrease in S6K level incubated for 12 hrs by Western blot analysis; type: cell-based; details: dose <= 20.0 nM
[26] = Volume of distribution at steady state in Sprague-Dawley rat at 10 mg/kg, po measured for 24 hrs by LC-MS/MS analysis; type: ADME, organism-based; details: in vivo
[27] = test system: MV4-11; test: In vivo PROTAC activity at CRBN/FLT3-ITD mutant in human MV4-11 cells xenografted in nu/nu mouse assessed as protein degradation at 1.25 mg/kg, po administered daily for 2 weeks by immunoblot analysis; type: functional, organism-based
[28] = test system: Protein cereblon/Receptor-type tyrosine-protein kinase FLT3 (Homo sapiens), P36888+Q96SW2 [UNDEFINED MUTATION]; test: PROTAC activity at CRBN/FLT3-ITD mutant in membrane of human MV4-11 cells assessed as protein degradation at 100 nM measured after 24 hrs by immunofluorescence analysis
[29] = Toxicity in nu/nu mouse xenografted with human MV4-11 cells assessed as damage in spleen at 1.25 to 10 mg/kg, po administered daily for 2 weeks by H and E staining based analysis; type: organism-based; details: in vivo, 336 h, dose 1.25-10 mg/kg
[30] = test system: BaF3; test: Antiproliferative activity against mouse Ba/F3 cells expressing FLT3-ITD D835V mutant incubated for 48 hrs by CCK8 assay; type: functional, cell-based; details: BaF3, 48 h
[31] = test system: Protein cereblon/Receptor-type tyrosine-protein kinase FLT3 (Homo sapiens), P36888+Q96SW2 [UNDEFINED MUTATION]; test: PROTAC activity at CRBN/FLT3-ITD mutant in human MV4-11 cells assessed as decrease in STAT5 level incubated for 12 hrs by Western blot analysis; type: cell-based; details: dose <= 20.0 nM
[32] = AUC (0 to t) in Sprague-Dawley rat at 1 mg/kg, iv measured for 24 hrs by LC-MS/MS analysis; type: ADME, organism-based; details: in vivo
[33] = Stability in dog liver microsomes assessed as half life; type: ADME, Canis lupus familiaris, Microsome
[34] = test system: Protein cereblon/Receptor-type tyrosine-protein kinase FLT3 (Homo sapiens), P36888+Q96SW2 [UNDEFINED MUTATION]; test: PROTAC activity at CRBN/FLT3-ITD mutant in human MOLM-13 cells assessed as decrease in ERK level at 20 nM by Western blot analysis; type: cell-based; details: time <= 12.0 hrs, TDE = time-dependent effect
[35] = test system: Protein cereblon/Receptor-type tyrosine-protein kinase FLT3 (Homo sapiens), P36888+Q96SW2 [UNDEFINED MUTATION]; test: PROTAC activity at CRBN/FLT3-ITD mutant in human MOLM-13 cells assessed as decrease in ERK level incubated for 12 hrs by Western blot analysis; type: cell-based; details: dose <= 20.0 nM
[36] = test system: MV4-11; test: Antitumor activity against human MV4-11 cells xenografted in nu/nu mouse at 10 mg/kg, po administered daily for 2 weeks relative to control; type: functional; details: MV4-11, 336 h, read-out: TGI
[37] = Antiproliferative activity against human U-937 cells expressing wild-type FLT3 incubated for 48 hrs by CCK8 assay; type: toxicity, cell-based

Protein cereblon/Receptor-type tyrosine-protein kinase FLT3 (Homo sapiens), P36888+Q96SW2 [UNDEFINED MUTATION], sequence (P36888 whole entry, looked up, stated change not applied): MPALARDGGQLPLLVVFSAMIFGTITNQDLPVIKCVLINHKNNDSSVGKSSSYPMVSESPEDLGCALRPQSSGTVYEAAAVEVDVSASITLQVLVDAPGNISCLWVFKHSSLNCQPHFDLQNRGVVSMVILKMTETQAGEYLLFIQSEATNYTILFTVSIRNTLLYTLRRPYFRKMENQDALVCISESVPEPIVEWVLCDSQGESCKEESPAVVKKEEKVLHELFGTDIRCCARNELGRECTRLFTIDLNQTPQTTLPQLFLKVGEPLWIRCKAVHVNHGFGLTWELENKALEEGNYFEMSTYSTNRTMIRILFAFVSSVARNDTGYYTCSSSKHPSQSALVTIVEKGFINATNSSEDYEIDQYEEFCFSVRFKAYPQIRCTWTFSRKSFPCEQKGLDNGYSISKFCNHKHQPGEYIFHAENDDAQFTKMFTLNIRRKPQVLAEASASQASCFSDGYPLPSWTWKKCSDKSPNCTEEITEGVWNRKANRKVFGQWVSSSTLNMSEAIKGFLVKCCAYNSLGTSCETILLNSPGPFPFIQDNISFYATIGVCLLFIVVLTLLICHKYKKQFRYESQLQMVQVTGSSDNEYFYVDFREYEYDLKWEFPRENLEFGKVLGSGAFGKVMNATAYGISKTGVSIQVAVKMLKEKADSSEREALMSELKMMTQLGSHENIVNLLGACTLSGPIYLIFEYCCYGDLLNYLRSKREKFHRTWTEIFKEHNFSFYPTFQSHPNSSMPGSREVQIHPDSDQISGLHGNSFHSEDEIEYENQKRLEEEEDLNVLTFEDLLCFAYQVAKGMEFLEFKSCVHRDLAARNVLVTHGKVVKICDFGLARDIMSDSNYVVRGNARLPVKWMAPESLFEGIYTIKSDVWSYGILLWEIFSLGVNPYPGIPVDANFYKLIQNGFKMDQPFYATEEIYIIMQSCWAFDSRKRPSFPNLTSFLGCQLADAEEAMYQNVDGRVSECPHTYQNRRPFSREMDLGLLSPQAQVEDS
Protein cereblon/Receptor-type tyrosine-protein kinase FLT3 (Homo sapiens), P36888+Q96SW2 [UNDEFINED MUTATION], sequence (Q96SW2 whole entry, looked up, stated change not applied): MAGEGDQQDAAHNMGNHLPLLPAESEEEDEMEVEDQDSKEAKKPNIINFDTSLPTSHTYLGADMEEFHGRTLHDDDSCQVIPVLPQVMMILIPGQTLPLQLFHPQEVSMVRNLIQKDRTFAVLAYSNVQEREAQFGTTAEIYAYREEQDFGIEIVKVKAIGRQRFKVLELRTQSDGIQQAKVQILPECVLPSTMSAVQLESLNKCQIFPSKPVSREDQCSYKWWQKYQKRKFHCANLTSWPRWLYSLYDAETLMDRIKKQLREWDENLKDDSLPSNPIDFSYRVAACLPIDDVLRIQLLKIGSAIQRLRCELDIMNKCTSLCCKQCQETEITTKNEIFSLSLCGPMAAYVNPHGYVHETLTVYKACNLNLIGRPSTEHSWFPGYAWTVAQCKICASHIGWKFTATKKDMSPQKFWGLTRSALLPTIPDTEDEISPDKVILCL
Voltage-gated inwardly rectifying potassium channel KCNH2, sequence (Q12809 whole entry): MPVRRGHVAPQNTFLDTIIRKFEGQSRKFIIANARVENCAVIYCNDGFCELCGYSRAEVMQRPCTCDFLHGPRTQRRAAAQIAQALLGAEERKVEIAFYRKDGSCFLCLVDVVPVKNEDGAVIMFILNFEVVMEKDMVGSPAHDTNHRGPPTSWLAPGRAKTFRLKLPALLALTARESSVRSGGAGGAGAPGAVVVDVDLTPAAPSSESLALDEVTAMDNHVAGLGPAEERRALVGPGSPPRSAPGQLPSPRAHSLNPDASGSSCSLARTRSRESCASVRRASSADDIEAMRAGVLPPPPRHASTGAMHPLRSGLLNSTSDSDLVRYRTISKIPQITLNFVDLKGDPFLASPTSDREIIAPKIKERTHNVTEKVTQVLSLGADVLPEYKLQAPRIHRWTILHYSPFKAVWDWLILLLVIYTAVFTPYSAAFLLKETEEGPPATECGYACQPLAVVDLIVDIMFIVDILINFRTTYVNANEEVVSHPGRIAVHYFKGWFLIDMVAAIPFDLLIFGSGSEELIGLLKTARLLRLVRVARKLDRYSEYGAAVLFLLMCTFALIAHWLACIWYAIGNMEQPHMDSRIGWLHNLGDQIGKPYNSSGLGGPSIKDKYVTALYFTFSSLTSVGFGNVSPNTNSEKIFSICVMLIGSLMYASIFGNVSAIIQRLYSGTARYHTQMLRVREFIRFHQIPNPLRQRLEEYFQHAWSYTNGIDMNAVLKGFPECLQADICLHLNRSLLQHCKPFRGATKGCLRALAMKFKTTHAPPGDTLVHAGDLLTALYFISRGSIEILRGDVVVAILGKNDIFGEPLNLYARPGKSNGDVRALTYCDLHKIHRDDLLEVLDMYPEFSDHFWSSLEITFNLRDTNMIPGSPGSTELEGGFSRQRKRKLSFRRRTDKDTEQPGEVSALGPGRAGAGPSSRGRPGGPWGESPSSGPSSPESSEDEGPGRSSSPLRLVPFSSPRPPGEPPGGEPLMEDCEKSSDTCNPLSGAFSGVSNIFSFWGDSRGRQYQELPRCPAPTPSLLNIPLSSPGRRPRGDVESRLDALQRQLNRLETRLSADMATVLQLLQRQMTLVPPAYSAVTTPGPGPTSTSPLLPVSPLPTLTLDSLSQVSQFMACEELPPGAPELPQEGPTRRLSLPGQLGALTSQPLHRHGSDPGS

Cc1c(NC(=O)CN2CCN(CC3CCN(c4ccc5c(c4)C(=O)N(C4CCC(=O)NC4=O)C5=O)CC3)CC2)c[nH]c1/C=C1\C(=O)Nc2ccc(F)cc21 (configuration not stated)
Activity [1]: Active
Activity [2]: Non-Toxic
Activity [3]: Non-Toxic
IC50 [4]: 147 nM
Activity [5]: Dose-Dependent Effect
Activity [6]: Active
Activity [7]: 85.5%
half-life [8]: 6.5 h
IC50 [9]: 39.9 nM
Activity [10]: Active
Vd [11]: 3.5 L/kg
inhibition in vivo at 5 mg/kg [12]: 97.5%
Activity [13]: Dose-Dependent Effect
IC50 [14]: > 40000 nM
Activity [15]: Active
Activity [16]: Tde
Activity [17]: 82%
Activity [18]: Active
Activity [19]: inactive
Activity [20]: Non-Toxic
Cmax [21]: 1120 ng/mL
CLhep predicted [22]: 11.3 mL/min/kg
Activity [23]: Dose-Dependent Effect
Activity [24]: Dose-Dependent Effect
Activity [25]: Dose-Dependent Effect
Vdss [26]: 5.7 L/kg
Activity [27]: Active
Activity [28]: Active
Activity [29]: Non-Toxic
IC50 [30]: 45.1 nM
Activity [31]: Dose-Dependent Effect
AUC(0-t) at 24 h [32]: 2770 ng·h/mL
half-life [33]: 1.88 h
Activity [34]: Tde
Activity [35]: Dose-Dependent Effect
inhibition in vivo at 10 mg/kg [36]: 100%
IC50 at 48 h [37]: > 40000 nM
